Where two headings read alike, the source gives them in different places.
Experiments:
[1] = ref PharmaPendium, cited from earlier work
[2] = test system: hiPSC-derived neurons co-cultured with human primary astrocytes in 2D; test: Ca2+ transient oscillation assay (FDSS), 2D co-culture; assay type: cell-based; conditions: for activation at 0.37 µM / activation at 1.11 µM / activation at 3.33 µM / activation at 10 µM / activation at 0.11 µM / activation at 0.33 µM / activation at 1 µM / activation at 3 µM: Homo sapiens, 1 h, 60 min
Method in brief: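 hiPSC-derived excitatory neurons (CW50065, Quick-Neuron EX-SeV) co-cultured with human primary astrocytes at 4:1 (10,000:2500 cells per well). Cal-520-loaded cells in HBSS with 2 mM CaCl2 and 10 mM HEPES were pretreated with 0.04% DMSO.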

[3] = test system: hiPSC-derived neurons co-cultured with human primary astrocytes in 3D; test: Ca2+ transient oscillation assay (FDSS), 3D spheroids; assay type: cell-based; conditions: 60 min
Method in brief: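 Fura-2 fluorescence was read twice for 20 min each: a baseline 10 min after 0.04% DMSO, and again 60 min after compound addition at nominal final concentration. The 3D co-cultures (1:1 hiPSC neurons from a donor and human astrocytes, 8000 each) matured 5 weeks in BrainPhys medium after a 1-week differentiation.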

[4] = Table 1, peak plasma concentration in men, free therapeutic Cmax
[5] = read-out: Area under the curve - 2D Mean
[6] = read-out: Peak amplitude - 2D Mean
[7] = read-out: Peak-to-peak interval - 2D Mean

SMILES: CCn1cc(C(=O)O)c(=O)c2cc(F)c(N3CCNCC3)nc21 [Enoxacin]
- Free Cmax [1, 4]: 1000 to 4000 nM
- activation at 0.37 µM [2, 5]: 25.5%
- activation at 0.37 µM ([2]; read-out: Peak Number—2D Mean): 1.3%
- activation at 0.37 µM [2, 6]: 7.8%
- activation at 0.37 µM ([2]; read-out: Peak width - 2D Mean): 18.3%
- activation at 0.37 µM [2, 7]: 18%
- activation at 1.11 µM [2, 5]: 41%
- activation at 1.11 µM ([2]; read-out: Peak Number—2D Mean): 2.3%
- activation at 1.11 µM [2, 6]: 5.3%
- activation at 1.11 µM ([2]; read-out: Peak width - 2D Mean): 45.8%
- activation at 1.11 µM [2, 7]: 1.3%
- activation at 3.33 µM [2, 5]: 47.3%
- activation at 3.33 µM ([2]; read-out: Peak Number—2D Mean): 5.5%
- activation at 3.33 µM [2, 6]: 13.5%
- activation at 3.33 µM ([2]; read-out: Peak width - 2D Mean): 39%
- activation at 3.33 µM [2, 7]: 12.7%
- activation at 10 µM [2, 5]: 49.3%
- activation at 10 µM ([2]; read-out: Peak Number—2D Mean): 2%
- activation at 10 µM [2, 6]: 11.3%
- activation at 10 µM ([2]; read-out: Peak width - 2D Mean): 49%
- activation at 10 µM [2, 7]: -3%
- Area under the curve - 3D Mean ([3]; 0.37 µM): 115.6 % change from baseline
- Peak Number—3D Mean ([3]; 0.37 µM): −16.9 % change from baseline
- Peak amplitude - 3D Mean ([3]; 0.37 µM): 106.8 % change from baseline
- Peak width - 3D Mean ([3]; 0.37 µM): 3.2 % change from baseline
- Peak-to-peak interval - 3D Mean ([3]; 0.37 µM): 30.9 % change from baseline
- Area under the curve - 3D Mean ([3]; 1.11 µM): 124.6 % change from baseline
- Peak Number—3D Mean ([3]; 1.11 µM): 5.5 % change from baseline
- Peak amplitude - 3D Mean ([3]; 1.11 µM): 123.3 % change from baseline
- Peak width - 3D Mean ([3]; 1.11 µM): −2.2 % change from baseline
- Peak-to-peak interval - 3D Mean ([3]; 1.11 µM): −0.7 % change from baseline
- Area under the curve - 3D Mean ([3]; 3.33 µM): 139.4 % change from baseline
- Peak Number—3D Mean ([3]; 3.33 µM): 13.2 % change from baseline
- Peak amplitude - 3D Mean ([3]; 3.33 µM): 129.6 % change from baseline
- Peak width - 3D Mean ([3]; 3.33 µM): 3.0 % change from baseline
- Peak-to-peak interval - 3D Mean ([3]; 3.33 µM): −1.3 % change from baseline
- Area under the curve - 3D Mean ([3]; 10 µM): 114.6 % change from baseline
- Peak Number—3D Mean ([3]; 10 µM): 2.2 % change from baseline
- Peak amplitude - 3D Mean ([3]; 10 µM): 116.3 % change from baseline
- Peak width - 3D Mean ([3]; 10 µM): −1.1 % change from baseline
- Peak-to-peak interval - 3D Mean ([3]; 10 µM): −1.1 % change from baseline

SMILES: NCCCC(=O)O [GABA, gamma-aminobutyric acid]
- Free Cmax [1, 4]: ~1000 nM
- Free Cmax ([1]; Table 2, highest plasma concentration in humans after the therapeutic dose): ~1000 nM
- effect on peak number / Ca2+ neuronal oscillations, in words ([2]; 2D format): significantly reduced peak number
- activation at 0.11 µM [2, 5]: 23.1%
- activation at 0.11 µM ([2]; read-out: Peak Number—2D Mean): -1.6%
- activation at 0.11 µM [2, 6]: 9.1%
- activation at 0.11 µM ([2]; read-out: Peak width - 2D Mean): 13.2%
- activation at 0.11 µM [2, 7]: -12.3%
- activation at 0.33 µM [2, 5]: 21.1%
- activation at 0.33 µM ([2]; read-out: Peak Number—2D Mean): -4.4%
- activation at 0.33 µM [2, 6]: 5.7%
- activation at 0.33 µM ([2]; read-out: Peak width - 2D Mean): 15.4%
- activation at 0.33 µM [2, 7]: 29.1%
- activation at 1 µM [2, 5]: 16.4%
- activation at 1 µM ([2]; read-out: Peak Number—2D Mean): -12.4%
- activation at 1 µM [2, 6]: -1.4%
- activation at 1 µM ([2]; read-out: Peak width - 2D Mean): 11.7%
- activation at 1 µM [2, 7]: 32%
- activation at 3 µM [2, 5]: 14.9%
- activation at 3 µM ([2]; read-out: Peak Number—2D Mean): -36.5%
- activation at 3 µM [2, 6]: -2.7%
- activation at 3 µM ([2]; read-out: Peak width - 2D Mean): 8.5%
- activation at 3 µM [2, 7]: -26.3%
- Area under the curve - 3D Mean ([3]; 0.11 µM): 111.5 % change from baseline
- Peak Number—3D Mean ([3]; 0.11 µM): 5.0 % change from baseline
- Peak amplitude - 3D Mean ([3]; 0.11 µM): 87.8 % change from baseline
- Peak width - 3D Mean ([3]; 0.11 µM): 7.6 % change from baseline
- Peak-to-peak interval - 3D Mean ([3]; 0.11 µM): 0.2 % change from baseline
- Area under the curve - 3D Mean ([3]; 0.33 µM): 116.2 % change from baseline
- Peak Number—3D Mean ([3]; 0.33 µM): −1.8 % change from baseline
- Peak amplitude - 3D Mean ([3]; 0.33 µM): 112.0 % change from baseline
- Peak width - 3D Mean ([3]; 0.33 µM): 0.5 % change from baseline
- Peak-to-peak interval - 3D Mean ([3]; 0.33 µM): −2.1 % change from baseline
- Area under the curve - 3D Mean ([3]; 1 µM): 97.0 % change from baseline
- Peak Number—3D Mean ([3]; 1 µM): −0.6 % change from baseline
- Peak amplitude - 3D Mean ([3]; 1 µM): 90.5 % change from baseline
- Peak width - 3D Mean ([3]; 1 µM): −2.7 % change from baseline
- Peak-to-peak interval - 3D Mean ([3]; 1 µM): 8.3 % change from baseline
- Area under the curve - 3D Mean ([3]; 3 µM): 118.7 % change from baseline
- Peak Number—3D Mean ([3]; 3 µM): 2.2 % change from baseline
- Peak amplitude - 3D Mean ([3]; 3 µM): 110.9 % change from baseline
- Peak width - 3D Mean ([3]; 3 µM): 0.7 % change from baseline
- Peak-to-peak interval - 3D Mean ([3]; 3 µM): −2.5 % change from baseline

Reference: PMC10046961, “High-Throughput Screening Assay for Detecting Drug-Induced Changes in Synchronized Neuronal Oscillations and Potential Seizure Risk Based on Ca^2+ Fluorescence Measurements in Human Induced Pluripotent Stem Cell (hiPSC)-Derived Neuronal 2D and 3D Cultures” (Cells, 2023)
